molecular target: T1, human fibroblast collagenase (Homo sapiens, UniProt P03956); experiment: Inhibition of Human Fibroblast Collagenase (in vitro, H-Pro-Met-Ala-Leu-Trp-NHCH3 substrate, fluorescamine detection); assay type: biochemical; settings: trypsin-activated enzyme 25 nM; substrate 375 μM; pH 7.5; DMSO not exceeding 5%; 90 minutes; calculated from competitive inhibitor equation; read-out: IC50 (half-maximal inhibitory concentration), Inhibition of Human Fibroblast Collagenase
T1 construct: made in house; host or cells: human fibroblast (native enzyme by its name)
T1 sequence (P03956 100-469): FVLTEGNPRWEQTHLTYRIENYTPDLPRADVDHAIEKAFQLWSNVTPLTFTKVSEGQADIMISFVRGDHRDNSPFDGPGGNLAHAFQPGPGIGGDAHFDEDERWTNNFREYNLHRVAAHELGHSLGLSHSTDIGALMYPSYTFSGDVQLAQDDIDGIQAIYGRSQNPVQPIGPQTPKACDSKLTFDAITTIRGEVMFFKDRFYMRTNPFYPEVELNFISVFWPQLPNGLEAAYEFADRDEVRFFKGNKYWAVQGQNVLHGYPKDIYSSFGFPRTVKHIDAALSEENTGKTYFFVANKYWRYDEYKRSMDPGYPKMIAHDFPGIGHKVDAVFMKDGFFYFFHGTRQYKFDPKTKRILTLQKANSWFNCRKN
Procedure: As stated above the compounds of Formula I are matrix-metalloprotease inhibitors useful in treatment of disease in which matrix-metalloprotease promoted connective tissue remodelling is a causative factor, for example, rheumatoid arthritis and cancer.
Human fibroblast collagenase was purified as described by Fields et al. (The Journal of Biological Chemistry, vol. 262, pp. 6221-6226, 1987), activated with trypsin and used at a concentration of 25 nM. H-Pro-Met-Ala-Leu-Trp-NHCH3 (Netzel-Arnett et al., The Journal of Biological Chemistry, vol 266, pp. 6747-6755, 1991) was used as substrate at a concentration of 375 μM. Fluorescamine was used to detect the products of enzymolysis. […] Product concentrations were measured at intervals throughout the test period (90 minutes). The half-maximal inhibitory concentration (IC50) of the test compound was calculated from the equation for a competitive inhibitor using percent inhibition values between 20% and 80%. The products of parts B and C of example 2 and parts B and C. of example 3 were tested and the following results were obtained.

IC50 | Structure (SMILES)
8800 nM | CC(C)C[C@H](CC(=O)O)C(=O)N[C@@H](Cc1c[nH]c2ccccc12)C(=O)NCCSCCN(C)C [Example 2B]
20 nM | CC(C)C[C@H](CC(=O)NO)C(=O)N[C@@H](Cc1c[nH]c2ccccc12)C(=O)NCCSCCN(C)C [Example 2C]
4500 nM | CC(C)C[C@H](CC(=O)O)C(=O)N[C@@H](Cc1c[nH]c2ccccc12)C(=O)NCCSCCN1CCOCC1 [Example 3B]
15 nM | CC(C)C[C@H](CC(=O)NO)C(=O)N[C@@H](Cc1c[nH]c2ccccc12)C(=O)NCCSCCN1CCOCC1 [Example 3C]

Reference: US5256657A, “Succinamide derivative matrix-metalloprotease inhibitors” (Sterling Winthrop, Inc., priority 1991, dated 1993)
